Data from US12077483B2, “Modified amine lipids” (Intellia Therapeutics, Inc., priority 2018, dated 2024).
Values joined by “and” are separate entries in the source; they are usually repeats but may differ in a detail not shown here. Equal entries are not always repeated. Blank lines part the entries; values can stand above or below the compound they belong to.

Key:
[1] = pKa of amine lipid by TNS fluorescence; type: physicochemical; details: probe TNS (6-(p-toluidino)-2-naphthalenesulfonic acid sodium salt), unformulated amine lipid in ethanol, sodium phosphate buffers -9.0
Method in brief: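 pKa derived from a sigmoidal fit of normalized TNS fluorescence (321 nm excitation, 448 nm emission) versus pH. Lipid from ethanol stock diluted to about 100 μM final in 0.1 M phosphate buffers, pH 4.5–9.0.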

[2] = RNA encapsulation efficiency of LNP (Ribogreen fluorescence assay); type: physicochemical; details: for % E: Table 13, LNP sgRNA:Cas9 mRNA 1:2 w/w, N/P 6.0
Method in brief: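 LNP samples diluted in 1× TE with or without 0.2% Triton-X 100 for total or free RNA, stained ~10 min at room temperature in the dark with RiboGreen; fluorescence ex 488/em 525 nm against RNA standard curves. Encapsulation efficiency = (Total RNA−Free RNA)/Total RNA.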

[3] = LNP average particle size and polydispersity by dynamic light scattering; type: physicochemical
Method in brief: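 LNPs were diluted in PBS to a count rate of about 200-400 kcps and measured by DLS on a Zetasizer. Size is the intensity-weighted Z-average diameter, reported with number-average diameter, and the polydispersity index describes the spread of sizes around the mean.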

mouse TTR = experiment: Serum TTR ELISA in mice after LNP delivery; type: in vivo
Method in brief: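 Mouse TTR in serum was quantified by ELISA (samples diluted e.g. 10,000- and/or 2,500-fold) 6–7 days after dosing CD-1 females with LNP, typically 0.1 mpk. Values are reported relative to vehicle-treated controls (%).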

[4] = LNP with the compound as amine lipid, Expt. 1, composition ratio (mol %) 50/9/38/3 for Cmpnd 49, 50/10/38.5/1.5 for the others
[5] = LNP with the compound as amine lipid, Expt. 6, composition ratio (mol %) 50/9/38/3 for Cmpnd 49, 50/10/38.5/1.5 for the others
[6] = LNP with the compound as amine lipid, Expt. 10, composition ratio (mol %) 50/9/38/3 for Cmpnd 49, 50/10/38.5/1.5 for the others
[7] = Table 6, LNP with G00282 sgRNA:Cas9 mRNA 1:1 w/w
[8] = Table 10, LNP with G00534 sgRNA:Cas9 mRNA 1:2 w/w
[9] = Table 13, LNP sgRNA:Cas9 mRNA 1:2 w/w, N/P 6.0
[10] = mouse serum, relative to TSS control of same experiment, dose 0.03 mpk, 0.03 mg/kg
[11] = LNP with the compound as amine lipid, Expt. 8, composition ratio (mol %) 50/9/38/3 for Cmpnd 49, 50/10/38.5/1.5 for the others
[12] = mouse serum, relative to TSS control of same experiment, dose 0.03 mpk
[13] = mouse serum, relative to TSS control of same experiment, dose 0.1 mpk
[14] = LNP with the compound as amine lipid, Expt. 7, composition ratio (mol %) 50/9/38/3 for Cmpnd 49, 50/10/38.5/1.5 for the others
[15] = LNP with the compound as amine lipid, Expt. 4, composition ratio (mol %) 50/9/38/3 for Cmpnd 49, 50/10/38.5/1.5 for the others
[16] = Table 3, guide G282, CD-1 female mice, 0.1 mpk i.v., Exp. 1, 8, 9, 10
[17] = Table 3, guide G282, CD-1 female mice, 0.1 mpk i.v., percentage of vehicle control (TSS)
[18] = LNP with the compound as amine lipid, Expt. 2, composition ratio (mol %) 50/9/39.5/3 for Cmpnd 49, 50/9/39.5/1.5 for the others
[19] = LNP with the compound as amine lipid, Expt. 3, composition ratio (mol %) 50/9/38/3 for Cmpnd 49, 50/10/38.5/1.5 for the others

SMILES: CCCCC/C=C\C/C=C\CCCCCCCC(=O)OCC(COC(=O)CCCCCCC/C=C\C/C=C\CCCCC)OC(=O)CCC(CCCCCCCC)OC(=O)NCCN(C)CC (stereo not drawn) [Compound 34, 2-((4-(((2-(ethyl(methyl)amino)ethyl)carbamoyl)oxy)dodecanoyl)oxy)propane-1,3-diyl (9Z,9′Z,12Z,12′Z)-bis(octadeca-9,12-dienoate)]
pKa [1]: 6.36
Encapsulation (%) [2, 4]: 98%
Encapsulation (%) [2, 5]: 98%
Encapsulation (%) [2, 6]: 98%
Encapsulation (%) [2, 7]: 98%
Encapsulation (%) [2, 8]: 93%
% E [2]: 97%
Num Ave Size (nm) [3, 4]: 76.32 nm
PDI [3, 4]: 0.02
Z-Ave Size (nm) [3, 4]: 93.66 nm
Num Ave Size (nm) [3, 5]: 73 nm
PDI [3, 5]: 0.03
Z-Ave Size (nm) [3, 5]: 89.00 nm
Num Ave Size (nm) [3, 6]: 77 nm
PDI [3, 6]: 0.03
Z-Ave Size (nm) [3, 6]: 95 nm
Num Ave Size (nm) [3, 7]: 71.97 nm
PDI [3, 7]: 0.015
Z-Ave Size (nm) [3, 7]: 86.45 nm
Num Avg Size (nm) [3, 8]: 76.08 nm
PDI [3, 8]: 0.052
Z-Avg Size (nm) [3, 8]: 96.43 nm
Number Average [nm] [3, 9]: 75.88 nm
PDI [3, 9]: 0.009
Z-Ave Size (nm) [3, 9]: 93.01 nm
Serum TTR (mouse TTR; Table 7, G00282, CD-1 female mice i.v., dose 0.1 mpk): 170 µg/mL
Serum TTR % TSS (mouse TTR; Table 7, G00282, CD-1 female mice i.v., dose 0.1 mpk, percentage of vehicle control): 21% TSS
Serum TTR (mouse TTR; Table 7, G00282, CD-1 female mice i.v., dose 0.3 mpk): 45 µg/mL
Serum TTR % TSS (mouse TTR; Table 7, G00282, CD-1 female mice i.v., dose 0.3 mpk, percentage of vehicle control): 5% TSS
Serum TTR % TSS (mouse TTR; [10]): 55% TSS and 85.10 % TSS

SMILES: CCCCC/C=C\C/C=C\CCCCCCCC(=O)OCC(COC(=O)CCCCCCC/C=C\C/C=C\CCCCC)OC(=O)CCC(CCCCCCCC)OC(=O)NCC1CCCN1C (stereo not drawn) [Compound 35, 2-((4-((((1-methylpyrrolidin-2-yl)methyl)carbamoyl)oxy)dodecanoyl)oxy) propane-1,3-diyl (9Z,9′Z,12Z,12′Z)-bis(octadeca-9,12-dienoate)]
pKa [1]: 6.35
Encapsulation (%) [2, 11]: 99%
Num Ave Size (nm) [3, 11]: 62.82 nm
PDI [3, 11]: 0.068
Z-Ave Size (nm) [3, 11]: 81.51 nm
Serum TTR % TSS (mouse TTR; [12]): 104.30 % TSS
Serum TTR % TSS (mouse TTR; [13]): 99.13 % TSS

SMILES: CCCCC/C=C\C/C=C\CCCCCCCC(=O)OCC(COC(=O)CCCCCCC/C=C\C/C=C\CCCCC)OC(=O)CCC(CCCCCCCCCC)OC(=O)NCCN(C)CC (stereo not drawn) [Compound 39, 2-((4-(((2-(ethyl(methyl)amino)ethyl)carbamoyl)oxy)tetradecanoyl)oxy)propane-1,3-diyl (9Z,9′Z,12Z,12′Z)-bis(octadeca-9,12-dienoate)]
pKa [1]: 6.32
Encapsulation (%) [2, 15]: 98%
Num Ave Size (nm) [3, 15]: 73.52 nm
PDI [3, 15]: 0.015
Z-Ave Size (nm) [3, 15]: 89.83 nm
Serum TTR (mouse TTR; [16]): 335 µg/mL
Serum TTR % TSS (mouse TTR; [17]): 41% TSS
Serum TTR % TSS (mouse TTR; [12]): 41% TSS
Serum TTR % TSS (mouse TTR; [13]): 6% TSS

SMILES: CCCCC/C=C\C/C=C\CCCCCCCC(=O)OCC(COC(=O)CCCCCCC/C=C\C/C=C\CCCCC)OC(=O)CCC(CCCCCC)OC(=O)NCCN(C)CC (stereo not drawn) [Compound 40, 2-((4-(((2-(ethyl(methyl)amino)ethyl)carbamoyl)oxy)decanoyl)oxy)propane-1,3-diyl (9Z,9′Z,12Z,12′Z)-bis(octadeca-9,12-dienoate)]
pKa [1]: 6.34
Encapsulation (%) [2, 15]: 97%
Num Ave Size (nm) [3, 15]: 81.51 nm
PDI [3, 15]: 0.027
Z-Ave Size (nm) [3, 15]: 101.10 nm
Serum TTR (mouse TTR; [16]): 251 µg/mL
Serum TTR % TSS (mouse TTR; [17]): 31% TSS
Serum TTR % TSS (mouse TTR; [12]): 77% TSS
Serum TTR % TSS (mouse TTR; [13]): 9% TSS

SMILES: CCCCC/C=C\C/C=C\CCCCCCCC(=O)OCC(COC(=O)CCCCCCC/C=C\C/C=C\CCCCC)OC(=O)CCC(CCCCC)OC(=O)NCCN1CCCC1 (stereo not drawn) [Compound 72, 2-((4-(((2-(pyrrolidin-1l-yl)ethyl)carbamoyl)oxy)nonanoyl)oxy)propane-1,3-diyl (9Z,9′Z,12Z,12′Z)-bis(octadeca-9,12-dienoate)]
pKa [1]: 7.01
Encapsulation (%) [2, 19]: 98%
% E [2]: 94%
Num Ave Size (nm) [3, 19]: 88.38 nm
PDI [3, 19]: 0.02
Z-Ave Size (nm) [3, 19]: 106.80 nm
Number Average [nm] [3, 9]: 91.47 nm
PDI [3, 9]: 0.018
Z-Ave Size (nm) [3, 9]: 111.4 nm
Serum TTR % TSS (mouse TTR; [12]): 66.92 % TSS
Serum TTR % TSS (mouse TTR; [13]): 26.43 % TSS

The next lines start with results.

pKa [1]: 6.13
Encapsulation (%) [2, 14]: 98%
Num Ave Size (nm) [3, 14]: 58.34 nm
PDI [3, 14]: 0.058
Z-Ave Size (nm) [3, 14]: 75.9 nm
SMILES: CCCCC/C=C\C/C=C\CCCCCCCC(=O)OCC(COC(=O)CCCCCCC/C=C\C/C=C\CCCCC)OC(=O)CCC(CCCCCCCC)OC(=O)OCCCN1CCCC1 (stereo not drawn) [Compound 36, 2-((4-(((3-(pyrrolidin-1-yl)propoxy)carbonyl)oxy)dodecanoyl)oxy)propane-1,3-diyl (9Z,9′Z,12Z,12′Z)-bis(octadeca-9,12-dienoate)]
Serum TTR % TSS (mouse TTR; [12]): 75.785 % TSS
Serum TTR % TSS (mouse TTR; [13]): 43.824 % TSS

pKa [1]: 5.79
Encapsulation (%) [2, 18]: 99%
Encapsulation (%) [2, 14]: 98%
Encapsulation (%) [2, 8]: 95%
Num Ave Size (nm) [3, 18]: 85.54 nm
PDI [3, 18]: 0.021
Z-Ave Size (nm) [3, 18]: 102.70 nm
Num Ave Size (nm) [3, 14]: 77.92 nm
PDI [3, 14]: 0.012
Z-Ave Size (nm) [3, 14]: 95.26 nm
Num Avg Size (nm) [3, 8]: 83.48 nm
PDI [3, 8]: 0.052
Z-Avg Size (nm) [3, 8]: 101.00 nm
SMILES: CCCCC/C=C\C/C=C\CCCCCCCC(=O)OCC(COC(=O)CCCCCCC/C=C\C/C=C\CCCCC)OC(=O)CCC(CCCCCC)OC(=O)OCCCN1CCCC1 (stereo not drawn) [Compound 45, 2-((4-(((3-(pyrrolidin-1-yl)propoxy)carbonyl)oxy)decanoyl)oxy)propane-1,3-diyl (9Z,9′Z,12Z,12′Z)-bis(octadeca-9,12-dienoate)]
Serum TTR % TSS (mouse TTR; [10]): 78.39 % TSS and 43.435 % TSS
Serum TTR % TSS (mouse TTR; [13]): 10.09 % TSS

pKa [1]: 6.37
Encapsulation (%) [2, 19]: 98%
Encapsulation (%) [2, 6]: 98%
% E [2]: 98%
Num Ave Size (nm) [3, 19]: 80.57 nm
PDI [3, 19]: 0.02
Z-Ave Size (nm) [3, 19]: 96.78 nm
Num Ave Size (nm) [3, 6]: 82 nm
PDI [3, 6]: 0.02
Z-Ave Size (nm) [3, 6]: 98 nm
Number Average [nm] [3, 9]: 80 nm
PDI [3, 9]: 0.009
Z-Ave Size (nm) [3, 9]: 97.21 nm
SMILES: CCCCC/C=C\C/C=C\CCCCCCCC(=O)OCC(COC(=O)CCCCCCC/C=C\C/C=C\CCCCC)OC(=O)CCC(CCCCCCCC)OC(=O)NCCN1CCCC1 (stereo not drawn) [Compound 51, 2-((4-(((2-(pyrrolidin-1-yl)ethyl)carbamoyl)oxy)dodecanoyl)oxy)propane-1,3-diyl (9Z,9′Z,12Z,12′Z)-bis(octadeca-9,12-dienoate)]
Serum TTR % TSS (mouse TTR; [13]): 9.32 % TSS
